Structures can show the parent of a compound that is named as a salt.

A word on the melting point: it is the temperature of the solid-liquid transition. On to `c1ccc2oc(-c3ccc(C45CCCN(CCC4)C5)cn3)cc2c1`, for which the melting point fell in the range of 152 to 154 °C.
In turn, `c1ccc2cc(-c3ccc(C45CCCN(CCC4)C5)cn3)ccc2c1` returned a melting point of 163 to 165 °C.
Take `Fc1ncccc1-c1ccc(C23CCN(CC2)C3)cn1`: the melting point fell in the range of 116 to 117 °C.
Then `Fc1ccc(-c2ccc(C34CCCN(CCC3)C4)cn2)cn1`, with 121 to 122 °C; and `c1cc(-c2ccc(C34CCCN(CCC3)C4)cn2)c2cccnc2c1`, with 147 to 149 °C; and `Fc1cc(-c2ccc(C34CCCN(CCC3)C4)cn2)ccc1-c1ccccc1`, with 144 °C.
Then `CC(=O)c1cccc(-c2ccc(C34CCN(CC3)C4)cn2)c1`, with 95 to 98 °C; and `Cc1ccc(-c2ccc(C34CCN(CC3)C4)cn2)cc1`, with 134 to 136 °C; and `Fc1cc(-c2ccc(C34CCN(CC3)C4)cn2)ccc1-c1ccccc1`, with 153 to 155 °C.
Then `c1cc(-c2ccc(C34CCN(CC3)C4)cn2)ccn1`, with 254 to 256 °C; and `c1cc(-c2ccc(C34CCN(CC3)C4)cn2)c2cccnc2c1`, with 129 to 131 °C.
On to `COc1cccc(-c2ccc(C34CCN(CC3)C4)cn2)c1`, for which the melting point was 87 to 89 °C.
Take `Fc1ccc(-c2ccc(C34CCN(CC3)C4)cn2)cc1F`: the melting point lay in the range of 85 to 87 °C.
Then `c1ccc2sc(-c3ccc(C45CCN(CC4)C5)cn3)cc2c1`, with 202 to 203 °C; and `Fc1cccc(-c2ccc(C34CCCN(CCC3)C4)cn2)c1`, with 102 to 104 °C.
In turn, `c1cc(-c2ccc(C34CCN(CC3)C4)cn2)co1` registered a melting point of 279 to 281 °C.
The figure for `c1ccc2c(c1)oc1c(-c3ccc(C45CCN(CC4)C5)cn3)cccc12` is 158 to 160 °C.
`c1ccc2ncc(-c3ccc(C45CCN(CC4)C5)cn3)cc2c1` had a melting point of 267 to 268 °C.
The figure for `c1cncc(-c2ccc(C34CCN(CC3)C4)cn2)c1` is 228 to 229 °C; for `FC(F)(F)Oc1ccc(-c2ccc(C34CCN(CC3)C4)cn2)cc1` it is 75 to 76 °C; for `c1ccc2sc(-c3ccc(C45CCCN(CCC4)C5)cn3)cc2c1` it is 176 to 178 °C.
Then `COc1cc(F)ccc1-c1ccc(C23CCN(CC2)C3)cn1`, with 169 to 170 °C.
Consider `c1ccc2c(c1)oc1c(-c3ccc(C45CCCN(CCC4)C5)cn3)cccc12`, for which the melting point is 142 to 144 °C.
In the case of `c1cc2c(cc1-c1ccc(C34CCCN(CCC3)C4)cn1)OCO2`, the melting point was in the range of 124 to 126 °C.
Then `c1cnc2ccc(-c3ccc(C45CCCN(CCC4)C5)cn3)cc2c1`, with 151 to 153 °C; and `Cn1ccc2cc(-c3ccc(C45CCCN(CCC4)C5)cn3)ccc21`, with 166 to 168 °C; and `c1cc(-c2ccc(C34CCCN(CCC3)C4)cn2)c[nH]1`, with 152 to 154 °C.
The figure for `Fc1ccc(-c2ccc(C34CCCN(CCC3)C4)cn2)cc1` is 107 to 109 °C.
Regarding `c1ncc(-c2ccc(C34CCN(CC3)C4)cn2)cn1`, the melting point fell in the range of 244 to 246 °C.
Then `COc1ncc(-c2ccc(C34CCN(CC3)C4)cn2)c(OC)n1`, with 104 to 106 °C; and `c1ccc(-c2ccc(-c3ccc(C45CCCN(CCC4)C5)cn3)cc2)cc1`, with 146 to 148 °C; and `c1cc(-c2ccc(C34CCCN(CCC3)C4)cn2)co1`, with 335 to 337 °C.
Then `c1cncc(-c2ccc(C34CCCN(CCC3)C4)cn2)c1`, with 118 to 120 °C; and `FC(F)(F)Oc1ccc(-c2ccc(C34CCCN(CCC3)C4)cn2)cc1`, with 120 to 122 °C.
Then `COc1cc(F)ccc1-c1ccc(C23CCCN(CCC2)C3)cn1`, with 148 to 150 °C; and `c1ccc2ncc(-c3ccc(C45CCCN(CCC4)C5)cn3)cc2c1`, with 160 to 162 °C.
Compound `c1ccc(-c2ccc(-c3ccc(C45CCN(CC4)C5)cn3)cc2)cc1` showed a melting point of 191 to 192 °C.
Then `c1cnc2c(-c3ccc(C45CCN(CC4)C5)cn3)cccc2c1`, with 176 to 178 °C; and `COc1ccc(-c2ccc(C34CCCN(CCC3)C4)cn2)cc1`, with 138 to 139 °C; and `c1cc2nonc2cc1-c1ccc(C23CCN(CC2)C3)cn1`, with 139 to 140 °C.
For the compound `c1nc(N2CCOCC2)ncc1-c1ccc(C23CCN(CC2)C3)cn1`, the melting point was in the range of 226 to 227 °C.
For the compound `COc1cc(F)cc(-c2ccc(C34CCN(CC3)C4)cn2)c1`, the melting point fell in the range of 95 to 97 °C.
With `COc1ccc(-c2ccc(C34CCN(CC3)C4)cn2)cc1F`, the melting point lay within 125 to 126 °C.
Then `COc1cccc(-c2ccc(C34CCN(CC3)C4)cn2)c1F`, with 144 to 146 °C; and `COc1ccc(-c2ccc(C34CCCN(CCC3)C4)cn2)cc1F`, with 138 to 140 °C; and `COc1cccc(-c2ccc(C34CCCN(CCC3)C4)cn2)c1F`, with 144 to 146 °C.
The figure for `Cn1cccc1-c1ccc(C23CCCN(CCC2)C3)cn1` is 105 to 107 °C; for `c1cc(-c2ccc(C34CCCN(CCC3)C4)cn2)cc(-n2cccn2)c1` it is 135 to 137 °C.
The figure for `c1csc(-c2ccc(C34CCN(CC3)C4)cn2)n1` is 127 to 129 °C; for `c1ncc(-c2ccc(C34CCCN(CCC3)C4)cn2)cn1` it is 139 to 141 °C; for `c1ccc2c(-c3ccc(C45CCCN(CCC4)C5)cn3)cccc2c1` it is 167 to 169 °C.
On to `c1nc(N2CCOCC2)ncc1-c1ccc(C23CCCN(CCC2)C3)cn1`, for which the melting point is 189 to 191 °C.
`COc1ncc(-c2ccc(C34CCCN(CCC3)C4)cn2)c(OC)n1` had a melting point of 81 to 83 °C.
Then `c1cc2nonc2cc1-c1ccc(C23CCCN(CCC2)C3)cn1`, with 151 to 153 °C; and `c1ccc(-c2ccc(C34CCCN(CCC3)C4)cn2)cc1`, with 103 to 105 °C.
Then `COc1ccc(OC)c(-c2ccc(C34CCCN(CCC3)C4)cn2)c1`, with 101 to 103 °C.
The figure for `FC(F)(F)c1ccc(-c2ccc(C34CCCN(CCC3)C4)cn2)cc1` is 135 to 137 °C; for `COc1ccncc1-c1ccc(C23CCCN(CCC2)C3)cn1` it is 134 to 136 °C.
For the compound `c1csc(-c2ccc(C34CCCN(CCC3)C4)cn2)n1`, the melting point was in the range of 124 to 126 °C.
The figure for `c1ccc(Oc2ccc(-c3ccc(C45CCCN(CCC4)C5)cn3)cc2)cc1` is 129 to 131 °C; for `Fc1ccccc1-c1ccc(C23CCCN(CCC2)C3)cn1` it is 117 to 119 °C; for `c1cc(N2CCCC2)ncc1-c1ccc(C23CCCN(CCC2)C3)cn1` it is 301 to 303 °C.
Then `CC(C)(C)OC(=O)N1CCN(c2ccc(-c3ccc(C45CCCN(CCC4)C5)cn3)cn2)CC1`, with 202 to 204 °C.
Then `c1ccc2c(-c3ccc(C45CCN(CC4)C5)cn3)cncc2c1`, with 143 to 145 °C; and `c1cc(-c2ccc(C34CCN(CC3)C4)cn2)c2ccncc2c1`, with 176 to 178 °C.
Regarding `c1ccc(-c2ccc(C34CCN(CC3)C4)cn2)cc1`, the melting point lay in the range of 126 to 128 °C.
Then `FC(F)(F)c1cc(-c2ccc(C34CCN(CC3)C4)cn2)cc(C(F)(F)F)c1`, with 117 to 119 °C; and `COc1ccncc1-c1ccc(C23CCN(CC2)C3)cn1`, with 97 to 99 °C; and `CC(C)(C)OC(=O)N1CCN(c2ccc(-c3ccc(C45CCN(CC4)C5)cn3)cn2)CC1`, with 216 to 218 °C.
The figure for `c1ccc2oc(-c3ccc(C45CCN(CC4)C5)cn3)cc2c1` is 164 to 165 °C; for `Fc1ccc(-c2ccc(C34CCN(CC3)C4)cn2)cn1` it is 108 to 109 °C; for `Fc1ncccc1-c1ccc(C23CCCN(CCC2)C3)cn1` it is 98 to 99 °C.
Then `Fc1ccccc1-c1ccc(C23CCN(CC2)C3)cn1`, with 110 to 112 °C.
Consider `COc1ccc(-c2ccc(C34CCN(CC3)C4)cn2)cc1`, for which the melting point fell in the range of 160 to 162 °C.
Then `c1ccc2cc(-c3ccc(C45CCN(CC4)C5)cn3)ccc2c1`, with 154 to 156 °C; and `c1ccc(Oc2ccc(-c3ccc(C45CCN(CC4)C5)cn3)cc2)cc1`, with 141 to 143 °C; and `CC(=O)c1cccc(-c2ccc(C34CCCN(CCC3)C4)cn2)c1` (as salt: HBr), with 284 to 285 °C.
The figure for `FC(F)(F)c1cccc(-c2ccc(C34CCCN(CCC3)C4)cn2)c1` (as salt: HBr) is 155 to 157 °C; for `c1ccc2c(-c3ccc(C45CCCN(CCC4)C5)cn3)cncc2c1` (as salt: HBr) it is 332 to 334 °C.
The compound `FC(F)(F)c1cc(-c2ccc(C34CCCN(CCC3)C4)cn2)cc(C(F)(F)F)c1` (as salt: HBr) came in with a melting point of 226 to 228 °C.
Then `COc1ccccc1-c1ccc(C23CCCN(CCC2)C3)cn1` (as salt: HBr), with 239 to 241 °C; and `COc1ccc(-c2ccc(C34CCCN(CCC3)C4)cn2)c(OC)c1` (as salt: HBr), with 198 to 200 °C; and `FC(F)(F)Oc1cccc(-c2ccc(C34CCCN(CCC3)C4)cn2)c1` (as salt: HBr), with 267 to 269 °C.
The figure for `c1cc(-c2ccc(C34CCCN(CCC3)C4)cn2)c2ccncc2c1` (as salt: HBr) is 246 to 248 °C; for `COc1ccccc1-c1ccc(C23CCN(CC2)C3)cn1` (as salt: HBr) it is 114 to 116 °C.
The figure for `COc1ccc(-c2ccc(C34CCN(CC3)C4)cn2)c(OC)c1` (as salt: HBr) is 195 to 197 °C; for `COc1ccc(OC)c(-c2ccc(C34CCN(CC3)C4)cn2)c1` (as salt: HBr) it is 152 to 154 °C; for `FC(F)(F)c1ccccc1-c1ccc(C23CCN(CC2)C3)cn1` (as salt: HBr) it is 310 to 312 °C.
Compound `Cn1cccc1-c1ccc(C23CCN(CC2)C3)cn1` (as salt: HCl) gave a melting point of 248 to 250 °C.
